Assay results: PMC7377239, “Cardiovascular Effects of Polychlorinated Biphenyls and Their Major Metabolites” (Environmental Health Perspectives, 2020)
Structures can show the parent of a compound that is named as a salt. Where two headings read alike, the source gives them in different places.

Assays:
[1] = test system: iCell cardiomyocytes (human iPSC-derived cardiomyocytes); experiment: High-content imaging of cytotoxicity and mitochondrial integrity in iPSC-CMs; assay type: cell-based; conditions: Homo sapiens; for viability at 0.01 µM / activity at 0.01 µM / viability at 0.1 µM / activity at 0.1 µM / viability at 1 µM / activity at 1 µM / viability at 10 µM / activity at 10 µM / viability at 100 µM / activity at 100 µM: Cardiomyocyte, 0.00 µM = 100.00; for viability at 0.1 µM / activity at 0.1 µM: 0.10 µM; for minimal effective concentration: iPSC-CM
Procedure, shortened: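 Readouts from high-content images were normalized to vehicle controls containing 0.5% vol/vol DMSO. They were fit to a four-parameter logistic model in R. Points of departure were set using a cutoff of one standard deviation across vehicle control means. Where no concentration–response was seen, the top tested concentration of 100μM was assigned as the no observable adverse effect level.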

HUVECs = experiment: High-content imaging cytotoxicity in HUVECs, 24 h; assay type: cell-based, human; conditions: Homo sapiens, HUVEC, 24 h, HUVECs; for viability at 0.01 µM / activity at 0.01 µM / viability at 0.1 µM / activity at 0.1 µM / viability at 1 µM / activity at 1 µM / viability at 10 µM / activity at 10 µM / viability at 100 µM / activity at 100 µM: 0.00 µM = 100.00; for viability at 0.1 µM / activity at 0.1 µM: 0.10 µM; for minimal effective concentration: top concentration 100.00 µM
Procedure, shortened: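 HUVECs (passages 1–5) grown to monolayer over 3–5 d, then exposed 24 h at 37°C, 5% CO2; stained with Hoechst 33342, MitoTracker Orange and calcein AM and imaged at 10×. Readouts normalized to 0.5% DMSO vehicle, four-parameter logistic fit; POD at one-SD cutoff, 100μM assigned when no response.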

[2] = 24 hr, read-out: huvec.cyto.24hr
[3] = 24 hr, read-out: huvec.mito.24hr
[4] = 24 hr, read-out: huvec.mitoint.24hr
[5] = 24 hr, read-out: huvec.nma.24hr
[6] = 24 hrs, read-out: huvec.tc.24hrs

O=S(=O)(O)Oc1ccc(-c2ccc(Cl)cc2)cc1 [4'-yl PCB 3 sulfate]
viability at 0.01 µM ([1]; 1.5 h, read-out: cm.cam.90min): 90.6% | activity at 0.01 µM ([1]; 1.5 h, read-out: cm.mii.90min): 111% | activity at 0.01 µM ([1]; 1.5 h, read-out: cm.mito.90min): 90.4% | viability at 0.01 µM ([1]; 1.5 h, read-out: cm.tc.90min): 90.5% | viability at 0.1 µM ([1]; 1.5 h, read-out: cm.cam.90min): 97.2% | activity at 0.1 µM ([1]; 1.5 h, read-out: cm.mii.90min): 109% | activity at 0.1 µM ([1]; 1.5 h, read-out: cm.mito.90min): 97.2% | viability at 0.1 µM ([1]; 1.5 h, read-out: cm.tc.90min): 97.5% | viability at 1 µM ([1]; 1.5 h, read-out: cm.cam.90min): 101% | activity at 1 µM ([1]; 1.5 h, read-out: cm.mii.90min): 109% | activity at 1 µM ([1]; 1.5 h, read-out: cm.mito.90min): 101% | viability at 1 µM ([1]; 1.5 h, read-out: cm.tc.90min): 102% | viability at 10 µM ([1]; 1.5 h, read-out: cm.cam.90min): 102% | activity at 10 µM ([1]; 1.5 h, read-out: cm.mii.90min): 107% | activity at 10 µM ([1]; 1.5 h, read-out: cm.mito.90min): 102% | viability at 10 µM ([1]; 1.5 h, read-out: cm.tc.90min): 102% | viability at 100 µM ([1]; 1.5 h, read-out: cm.cam.90min): 96.5% | activity at 100 µM ([1]; 1.5 h, read-out: cm.mii.90min): 113% | activity at 100 µM ([1]; 1.5 h, read-out: cm.mito.90min): 96.7% | viability at 100 µM ([1]; 1.5 h, read-out: cm.tc.90min): 96.7% | viability at 0.01 µM ([1]; 24 h, read-out: cm.cam.24hrs): 97.3% | activity at 0.01 µM ([1]; 24 h, read-out: cm.mii.24hrs): 98.4% | activity at 0.01 µM ([1]; 24 h, read-out: cm.mito.24hrs): 95.5% | viability at 0.01 µM ([1]; 24 h, read-out: cm.tc.24hrs): 97.4% | viability at 0.1 µM ([1]; 24 h, read-out: cm.cam.24hrs): 105% | activity at 0.1 µM ([1]; 24 h, read-out: cm.mii.24hrs): 111% | activity at 0.1 µM ([1]; 24 h, read-out: cm.mito.24hrs): 106% | viability at 0.1 µM ([1]; 24 h, read-out: cm.tc.24hrs): 106% | viability at 1 µM ([1]; 24 h, read-out: cm.cam.24hrs): 107% | activity at 1 µM ([1]; 24 h, read-out: cm.mii.24hrs): 98.9% | activity at 1 µM ([1]; 24 h, read-out: cm.mito.24hrs): 108% | viability at 1 µM ([1]; 24 h, read-out: cm.tc.24hrs): 107% | viability at 10 µM ([1]; 24 h, read-out: cm.cam.24hrs): 102% | activity at 10 µM ([1]; 24 h, read-out: cm.mii.24hrs): 92% | activity at 10 µM ([1]; 24 h, read-out: cm.mito.24hrs): 101% | viability at 10 µM ([1]; 24 h, read-out: cm.tc.24hrs): 102% | viability at 100 µM ([1]; 24 h, read-out: cm.cam.24hrs): 104% | activity at 100 µM ([1]; 24 h, read-out: cm.mii.24hrs): 82.3% | activity at 100 µM ([1]; 24 h, read-out: cm.mito.24hrs): 103% | viability at 100 µM ([1]; 24 h, read-out: cm.tc.24hrs): 105% | minimal effective concentration ([1]; 1.5 h, read-out: cm.cam.90min POD): 100 µM | minimal effective concentration ([1]; 1.5 h, read-out: cm.mii.90min POD): 100 µM | minimal effective concentration ([1]; 1.5 h, read-out: cm.mito.90min POD): 100 µM | minimal effective concentration ([1]; 1.5 h, read-out: cm.tc.90min POD): 100 µM | minimal effective concentration ([1]; 24 h, read-out: cm.cam.24hrs POD): 100 µM | minimal effective concentration ([1]; 24 h, read-out: cm.mii.24hrs POD): 53.5 µM | minimal effective concentration ([1]; 24 h, read-out: cm.mito.24hrs POD): 100 µM | minimal effective concentration ([1]; 24 h, read-out: cm.tc.24hrs POD): 100 µM | viability at 0.01 µM (HUVECs; [2]): 98.5% | activity at 0.01 µM (HUVECs; [3]): 97.5% | activity at 0.01 µM (HUVECs; [4]): 90.2% | activity at 0.01 µM (HUVECs; [5]): 99% | viability at 0.1 µM (HUVECs; [2]): 90.8% | activity at 0.1 µM (HUVECs; [3]): 89.7% | activity at 0.1 µM (HUVECs; [4]): 109% | activity at 0.1 µM (HUVECs; [5]): 102% | viability at 1 µM (HUVECs; [2]): 87.4% | activity at 1 µM (HUVECs; [3]): 86.3% | activity at 1 µM (HUVECs; [4]): 97.9% | activity at 1 µM (HUVECs; [5]): 100% | viability at 10 µM (HUVECs; [2]): 103% | activity at 10 µM (HUVECs; [3]): 103% | activity at 10 µM (HUVECs; [4]): 83.8% | activity at 10 µM (HUVECs; [5]): 97.1% | viability at 100 µM (HUVECs; [2]): 88.9% | activity at 100 µM (HUVECs; [3]): 87.6% | activity at 100 µM (HUVECs; [4]): 114% | activity at 100 µM (HUVECs; [5]): 97.7% | minimal effective concentration (HUVECs; 24 hr, read-out: huvec.cyto.24hr POD): 100 µM | minimal effective concentration (HUVECs; 24 hr, read-out: huvec.mito.24hr POD): 100 µM | minimal effective concentration (HUVECs; 24 hr, read-out: huvec.mitoint.24hr POD): 100 µM | minimal effective concentration (HUVECs; 24 hr, read-out: huvec.nma.24hr POD): 100 µM | viability at 0.01 µM (HUVECs; [6]): 98.5% | viability at 0.1 µM (HUVECs; [6]): 90.8% | viability at 1 µM (HUVECs; [6]): 87.4% | viability at 10 µM (HUVECs; [6]): 103% | viability at 100 µM (HUVECs; [6]): 88.9% | minimal effective concentration (HUVECs; 24 hrs, read-out: huvec.tc.24hrs POD): 100 µM
